One block for each compound: values may come before it. Where a SMILES comes first, the peptide text is derived from it. [ ]: non-standard residue; d: D form. ξ: configuration not given here. ξCha = NC(CC1CCCCC1)C(=O)O; ξThz = O=C(O)C1CSCN1
Key:
[1] = molecular target: T1, Nuclear factor erythroid 2-related factor 2 (Homo sapiens) (UniProt Q16236); experiment: Activation of Nrf2 in human SK-N-SH cells expressing Nqo1 ARE-Luc reporter plasmid at 10 uM after 18 hrs by luciferase reporter gene assay; format: cell-based
T1 sequence (whole entry): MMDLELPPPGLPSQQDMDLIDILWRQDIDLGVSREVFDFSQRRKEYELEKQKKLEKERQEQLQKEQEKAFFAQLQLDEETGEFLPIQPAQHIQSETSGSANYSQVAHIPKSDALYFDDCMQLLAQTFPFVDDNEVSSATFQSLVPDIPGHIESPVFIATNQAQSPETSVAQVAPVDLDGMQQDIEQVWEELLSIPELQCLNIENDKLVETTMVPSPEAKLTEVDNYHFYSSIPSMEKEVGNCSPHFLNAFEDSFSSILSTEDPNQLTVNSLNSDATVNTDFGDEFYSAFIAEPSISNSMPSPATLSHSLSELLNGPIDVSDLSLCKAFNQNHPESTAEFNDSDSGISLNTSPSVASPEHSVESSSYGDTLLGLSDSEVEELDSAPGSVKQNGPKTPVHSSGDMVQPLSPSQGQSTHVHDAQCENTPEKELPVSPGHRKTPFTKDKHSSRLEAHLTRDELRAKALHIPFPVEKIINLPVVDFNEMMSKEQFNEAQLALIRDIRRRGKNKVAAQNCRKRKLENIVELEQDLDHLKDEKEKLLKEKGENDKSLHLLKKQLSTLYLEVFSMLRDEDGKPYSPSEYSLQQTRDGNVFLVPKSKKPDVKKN

[2] = molecular target: T1, Nuclear factor erythroid 2-related factor 2 (Homo sapiens); experiment: Activation of Nrf2 (unknown origin) assessed as induction of ARE at 60 uM
[3] = molecular target: Kelch-like ECH-associated protein 1 (Homo sapiens, UniProt Q14145); experiment: Binding affinity to Keap1 (unknown origin)
[4] = Neuroprotection activity in human MC65 cells; format: functional, cell-based

Kelch-like ECH-associated protein 1, sequence (Q14145 whole entry): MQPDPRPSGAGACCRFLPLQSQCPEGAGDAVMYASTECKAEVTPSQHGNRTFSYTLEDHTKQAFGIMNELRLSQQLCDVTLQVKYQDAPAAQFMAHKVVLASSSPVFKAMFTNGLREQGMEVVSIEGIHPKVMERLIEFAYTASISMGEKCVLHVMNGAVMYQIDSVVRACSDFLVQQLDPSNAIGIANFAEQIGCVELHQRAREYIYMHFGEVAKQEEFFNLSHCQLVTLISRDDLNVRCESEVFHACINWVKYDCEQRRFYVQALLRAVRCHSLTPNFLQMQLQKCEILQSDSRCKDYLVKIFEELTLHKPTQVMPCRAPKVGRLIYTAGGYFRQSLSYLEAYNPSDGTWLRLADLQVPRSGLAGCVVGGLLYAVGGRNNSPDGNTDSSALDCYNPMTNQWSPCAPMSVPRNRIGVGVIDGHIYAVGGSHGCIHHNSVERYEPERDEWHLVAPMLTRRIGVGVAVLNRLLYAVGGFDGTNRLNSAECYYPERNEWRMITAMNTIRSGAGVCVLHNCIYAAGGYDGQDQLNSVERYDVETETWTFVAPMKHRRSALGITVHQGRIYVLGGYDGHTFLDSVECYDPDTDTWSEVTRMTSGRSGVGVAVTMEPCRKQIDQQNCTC

fold change (FC) [1]: > 4
SMILES: C[C@@H]1C(NC(=O)c2ccccc2O)=CC(=O)[C@@H]2O[C@H]12

fold change (FC) [2]: 30.7
SMILES: C/C=C/C(=O)Oc1ccc2[nH]cc(CCNC(C)=O)c2c1

IC50 [3]: 31 nM
SMILES: C[C@@H](O)[C@H](NC(=O)[C@H](CCC(=O)O)NC(=O)C1CSCN1C(=O)[C@@H](N)CC(=O)O)C(=O)NCC(=O)N[C@@H](CCC(=O)O)C(=O)NC(CC1CCCCC1)C(=O)O (some centres undefined) (H-D[ξThz]ETGE[ξCha]-OH)

SMILES: COc1ccc2[nH]cc(CCNC(=O)CC(=O)CCc3ccc(O)cc3)c2c1
EC50 [4]: 27.6 nM

From ChEMBL document CHEMBL4402544, “Reasonably activating Nrf2: A long-term, effective and controllable strategy for neurodegenerative diseases” (Eur J Med Chem, 2020)
